We go through 5 compounds from US6635250B2, “Use of certain metalloproteinase inhibitors for treating nerve disorders mediated by nucleus pulpsus” (A+ Science AB (publ), priority 1998, dated 2003).

For experiment [1], the system named is inducible nitrogen oxide synthetase. The conditions noted are these: cited from earlier work.
Experiment [2] relates to nerve roots. The conditions noted are these: cited from earlier work.
Experiment [3] has as its system sacrococcygeal cauda equina. Kind of experiment: Series-3: nerve root conduction velocity seven days after autologous nucleus pulposus application. It counts as in vivo. The conditions noted are these: pig, systemic treatment. On the procedure:
Series-3: Thirteen pigs had autologous nucleus pulposus placed onto their sacrococcygeal cauda equina similar to series-2. Five pigs (bodyweight 25 kg) received REMICADE® (infliximab) 100 mg i.v. preoperatively, and 8 pigs received ENBREL® (etanercept) 12.5 mg s.c. preoperatively and additionally 12.5 mg s.c. three days after the operation. Seven days after the nucleus pulposus-application the nerve root conduction velocity was determined over the application zone by local electrical stimulation according to series-2. Series-3: Thirteen pigs had autologous nucleus pulposus placed onto their sacrococcygeal cauda equina similar to series-2. […] Seven days after the nucleus pulposus-application the nerve root conduction velocity was determined over the application zone by local electrical stimulation according to series-2. […] The statistical difference between the groups, infliximab, and etanercept, nucleus pulposus without treatment (positive control from previous data) and application of retroperitoneal fat (negative control from previous data) was assessed by using ANOVA and Fisher's PLSD at 5%.

On to `N=C(N)NN` [Aminoguanidine], for which the “inhibition of release of nitrogen oxide (NO) at nerve root injuries” value in experiment [1] is on record as “inhibit the release of nitrogen oxide (NO)”. Take `COc1ccc2c(c1)c(CC(=O)O)c(C)n2C(=O)c1ccc(Cl)cc1` [indomethacin]: the “block of nucleus pulposus-related effects” value in experiment [2] is recorded as “slightly less efficiently”. With `CCN(CC)CC(=O)Nc1c(C)cccc1C` [lidocaine], the “block of nucleus pulposus-related effects” value in experiment [2] is on record as “slightly less efficiently”. Turning to etanercept [EMBREL ®], the “block of nucleus pulposus induced nerve injury (nerve conduction velocity)” value in experiment [3] was “blocked the nucleus pulposus induced nerve injury efficiently”.

On to infliximab [REMICADE ®], for which the “block of nucleus pulposus induced nerve injury (nerve conduction velocity)” value in experiment [3] is on record as “blocked the nucleus pulposus induced nerve injury efficiently”.
